Measured values from patent publication US8568994B2, “Method for prenatal diagnosis” (DKFZ Deutsches Krebsforschungszentrum, Stiftung des …, priority 2007, dated 2013).

Test system: Differentiated HPC cells
Experiment: Regulated exosomal secretion in human podocytes (Western blot of secreted vesicles for CD24, HSP70, Annexin-1)
Assay type: cell-based
Details: MCD 10 μg/ml or 10 mM for 2 hr
Experimental: Cultured HPC (differentiated) were treated with ionomycin (1 μM), MCD (10 mM) or cis-platin (15 μM) for 2 hr. Secreted membrane vesicles were harvested and cells were lysed in lysis buffer. Lysates and isolated vesicles were analyzed by SDS-PAGE followed by Western blot analysis with the indicated antibodies to CD24 and the exosomal marker proteins HSP70 and Annexin-1. Note the low level of constitutive vesicle secretion that is augmented by MCD.
Differentiated HPC cells were treated with ionomycin ([…]), MCD (10 μg/ml) or cisplatin (1 μg/ml) and analyzed the amount of exosomes released.
Human conditionally immortalized podocytes (HPC) were isolated and cultivated as previously described (31). Cells were grown in flasks either at the permissive temperature of 32° C. (in 5% CO2) to promote cell propagation as a cobblestone phenotype (undifferentiated) or at the nonpermissive temperature of 37° C. (in 5% CO2) to inactivate the SV40 T antigen and to allow the cells to differentiate. Prior to stimulation, cells were incubated for 16 h in RPMI 1640 medium, supplemented with 0.1 mg/ml of fatty acid-free bovine serum albumin. HK-2 human proximal tubular epithelial cells were obtained from American Type Culture Collection (ATCC, USA). Human mesangial cells (HMC) were kindly provided by Prof. Dr. Radeke (Depart. of Pharmacology, University of Frankfurt). […]

## methyl-beta-cyclodextrin [MCD]
  release of CD24 containing exosomes: significantly augmented the release of CD24 containing exosomes
